Values joined by “and” are separate entries in the source; they are usually repeats but may differ in a detail not shown here. Equal entries are not always repeated.

The IC50 is the concentration at which inhibition is half-maximal. Low values mean higher potency, high ones lower potency.

This assay has as its system P. falciparum 3D7 growth, pLDH absorbance. Nature of the assay: blood-stage malaria parasite growth potency – strain 3D7, dose response (AID 2305).
Turning to `CN1CCN(c2ccnc3cc4c(cc23)N(C(=O)Nc2ccc(-c3ccncc3)c3ccccc23)CC4)CC1`, the IC50 is 0.95 µM. The figure for `CN(C)CCOc1cc(NC(=O)Nc2cccc3c(-c4ccncc4)cccc23)ccc1I` is 0.73 µM. The figure for `O=C(Nc1ccc(Cn2ncc(N3CCCNCC3)c(Cl)c2=O)cc1)Nc1cc(F)cc(C(F)(F)F)c1` is 0.77 µM; for `N=C(N)c1ccc(OCCCCCOc2ccc(C(=N)N)cc2)cc1` it is 0.14 µM; for `COc1ccc(-c2nnc(Sc3ccc(C#N)c([N+](=O)[O-])c3)n2CCC(C)C)cc1` it is 1.11 µM. The same measure for `COCCn1c(C)cc(C(=O)CN2C(=O)NC(C)(c3ccc(C(C)(C)C)cc3)C2=O)c1C` (stereo not given): 0.47 µM; for `CN(CC(=O)Nc1cc(C(F)(F)F)ccc1-n1cncn1)Cc1nc2ccccc2s1`: 1.41 µM; for `COc1ccc(C(=O)Nc2cc(Br)c3c(c2)CNCC3)cc1Br`: 0.91 µM. `FC(F)(F)c1ccc(-c2ccc(CNC3CCN(CCN4CCOCC4)CC3)cc2)cc1` came in with an IC50 of 0.76 µM. The IC50 values of the last two compounds are within 1.5-fold of each other.

The compound `CCOc1ccc(Br)cc1/C=C/C(=O)Nc1ccc(C2CCN(C)CC2)cc1` displayed an IC50 of 0.45 µM. This IC50 is about 1.7-fold lower than that of the compound before. Regarding `COc1ccc(-c2cccc(NC(=O)c3cccc(C#N)c3)c2)cc1CN1CCN(C)CC1`, the IC50 is 0.93 µM. Compound `Oc1ccccc1Nc1nc(NCc2ccco2)c2ccccc2n1` yielded an IC50 of 0.64 µM. The figure for `O=C(NCC1CCN(Cc2cccc(C(F)(F)F)c2)C1)c1cc(-c2cccc(C(F)(F)F)c2)cs1` (stereo not given) is 0.61 µM; for `COc1ccc(Cc2cnc(N)nc2N)cc1OCCCOc1ccccc1` it is 0.91 µM; for `Cc1ccc(-c2cc(C(=O)Nc3ccc(S(=O)(=O)N4CCCC(C)C4)cc3)[nH]n2)c(O)c1` (stereo not given) it is 0.28 µM. The figure for `CC(=O)N(C)c1cccc(C(=O)Nc2cccc(-c3cccc(-c4nc5c(C)cccc5[nH]4)c3)c2)c1` is 0.62 µM; for `CC(C)C[C@H](NC(=O)c1cc2ccccc2s1)C(=O)N[C@H]1CCN(Cc2ccc(OC[C@@H]3CCCN3C)c(Cl)c2)C1` it is 0.85 µM; for `O=C(Nc1ccc(C(=O)Nc2ccc(C3=NCCN3)cc2)cc1)Nc1ccc(C2=NCCN2)cc1` it is 0.18 µM.

In turn, `C[C@H](Nc1c(Nc2ccc3[nH]ccc3c2)c(=O)c1=O)C1CCCCC1` had an IC50 of 0.21 µM. The same measure for `COc1ccc(C=CC(=O)NC2CCC(CN3CCC(c4c[nH]c5ccccc45)CC3)CC2)cc1` (stereo not given): 0.78 µM and 0.81 µM.

`CN(C)c1ccc(-c2csc(C(=O)NCC3CCN(CC4CCCCC4)C3)c2)cc1` (stereo not given) yielded an IC50 of 1.14 µM.

The compound `O=C(NCCNc1ccnc(NCc2ccc(F)cc2)n1)c1cc2ccccc2s1` showed an IC50 of 0.7 µM. With `CCC(C)(C)c1ccc(S(=O)(=O)Nc2ccc(Cl)c(OCCN3CCCCC3)c2)cc1`, the concentration for half-maximal inhibition (IC50) is 1.11 µM. `CCc1cn(CCc2ccccc2)c2ccc(C(=O)N[C@@H](Cc3ccccc3)[C@H](O)CNC(C)(C)CCCC(C)C)cc12` returned an IC50 of 0.22 µM. In turn, `CC1(C)[C@H]2CC[C@@H](CNc3nc(NCCc4cnc[nH]4)nc(Nc4ccc(Oc5ccccc5)cc4)n3)[C@@H]1C2` had an IC50 of 0.67 µM. `Cc1c(Cn2ncc(N3CCC(N)CC3)c(Cl)c2=O)cccc1NC(=O)Nc1ccc(-c2ccccc2)cc1` returned an IC50 of 0.7 µM. The same measure for `CN1CCN(S(=O)(=O)c2cccc(Nc3nccc(N(C)c4ccc5c(c4)nc(NC(=O)c4cccs4)n5C)n3)c2)CC1`: 0.75 µM. Compound `OC(CN1c2ccccc2Sc2ccccc21)CN(C1CCCCC1)C1CCCCC1` (stereo not given) showed an IC50 of 0.65 µM. The same measure for `COc1ccc(-c2cccc(NC(=O)c3cccc(Cl)c3)c2)cc1CN1CCNCC1`: 0.8 µM. The compound `Nc1nc(N)c2cc(Cc3ccc([N+](=O)[O-])cc3)cnc2n1` gave an IC50 of 0.94 µM.

The compound `COc1ccc(CCNC(=O)c2ccc(-n3cc(NC(=O)c4cccnc4)cn3)cc2)cc1OC` came in with a 50% inhibitory concentration (IC50) of 1.07 µM. The same measure for `O=C(c1ccc(F)c2ccccc12)N1CCc2cc3nccc(N4CCN5CCC[C@H]5C4)c3cc21`: 1 µM. As for `COc1ccc(NC(=O)c2cc(NC(=O)C3(N)CC3)c(=O)n(Cc3ccc(C(N)=O)cc3)c2)cc1`, the IC50 amounted to 0.79 µM. This IC50 and that of the compound before are within 1.5-fold of each other. With `COc1cc(NC(=O)Nc2ccc([N+](=O)[O-])cc2OC)c(OC)cc1Cl`, the IC50 is 1.47 µM. `O=C(NC1CC1)c1ccc(N2CCC(Oc3ccc(F)cc3)CC2)nc1` showed an IC50 of 1.09 µM. The IC50 values of the last two compounds are within 1.5-fold of each other. In turn, `C[C@@H]1CN(c2cnn(C/C=C/c3ccc(NC(=O)c4ccc(Cl)cc4)cc3)c(=O)c2Cl)C[C@H](C)N1` yielded a half-inhibitory concentration (IC50) of 0.85 µM. This IC50 and that of the compound before are within 1.5-fold of each other. As for `O=C(Nc1ccc(Oc2ccccc2)cc1)N[C@H]1CCN(Cc2ccc(OCCCN3CCCCC3)cc2)C1`, the IC50 was 0.18 µM.

Regarding `COC(=O)c1ccc(CC(C)NCC(O)c2cccc(C(F)(F)F)c2)cc1C` (stereo not given), the IC50 came out at 0.97 µM.

`FC(F)(F)c1cccc(N2CCC(CN3CCC(c4c[nH]c5ccccc45)CC3)CC2)n1`: the IC50 is 0.98 µM. The figure for `CC[C@H]1CN2CC[C@H]1C[C@H]2[C@H](O)c1ccnc2ccc(OC)cc12` is 0.15 µM; for `Cc1ccc(NS(=O)(=O)c2cccs2)cc1-c1cccc(C(=O)Nc2ccc(F)cc2)c1` it is 0.65 µM; for `N#Cc1ccc(N[C@@H](CC2CCCCC2)C(=O)NCc2cc(F)c(F)cc2F)c2ccccc12` it is 0.95 µM. As for `O=C(NCc1ccc(C(F)(F)F)cc1)c1cccc(-c2nnc(-c3cccc(-c4cncnc4)c3)o2)c1`, the IC50 amounted to 0.54 µM. The same measure for `CCNc1cc(C(=O)N[C@@H](Cc2ccccc2)[C@H](O)CNCCc2cccc(C(F)(F)F)c2)cc(N2CCCC2=O)c1`: 0.88 µM. The same measure for `COc1cc2nc(NCc3ccccc3)nc(NCc3ccccc3)c2cc1OC`: 0.15 µM; for `O=C(NCCc1ccccc1)c1cc(-c2cccnc2)cnc1NCC1CC1`: 0.85 µM. As for `CC(Sc1nc(-c2ccccc2)c(-c2ccccc2)o1)C(=O)NC1CC1` (stereo not given), the IC50 amounted to 0.84 µM.

Take `CC(C)CCC[C@@H]([C@@H](CC1CCCCC1)C(=O)N[C@@H](CCCCNC(=O)OCc1ccccc1)C(=O)Nc1nccs1)N(O)C=O`: the IC50 was determined as 0.46 µM.

For the compound `Oc1ccccc1-c1nc2cccnc2n1CCc1cccc(C(F)(F)F)c1`, the IC50 was 1.27 µM. The same measure for `NCCc1cccc(-c2cnc3[nH]cc(-c4ccc(C(=O)O)cc4)c3c2)c1`: 0.4 µM; for `O=C(/C=C/c1ccc(Cl)c(Cl)c1)NCCCCCCN1CCN(C(=O)Nc2ccc(OC(F)F)cc2)CC1`: 0.68 µM. The same measure for `CCn1ccc2c(N3CCCS3(=O)=O)cc(C(=O)N[C@@H](Cc3ccccc3)[C@H](O)CNC(C)(C)c3cccc(OC)c3)cc21`: 0.04 µM; for `C#Cc1cccc(NC(=O)[C@H](CC2CCCCC2)Nc2ccc(C#N)c3ccccc23)c1`: 0.59 µM; for `CCC(C)NCC(O)(c1ccc(Cl)cc1)c1ccc(Cl)cc1` (stereo not given): 0.84 µM.

For `COC(=O)c1ccc(C[C@@H](C)NC[C@H](O)c2cccc(C(F)(F)F)c2)cc1`, the IC50 is 0.79 µM and 0.76 µM. For the compound `CC1CCCCC1N(C)C1CCN(CCCNC(=O)C=Cc2cccc(C(F)(F)F)c2)CC1` (stereo not given), the half-inhibitory concentration (IC50) came out at 0.77 µM.

Compound `Cc1ccccc1C1CCN(C2CCC(NC(=O)c3ccc4c(c3)-c3nocc3C(C)O4)CC2)CC1` (stereo not given) yielded an IC50 of 1.27 µM. On to `CN1C(C)(C)CC(NC(=O)c2ccc(-c3cc4cc(Cl)c(Cl)cc4[nH]3)o2)CC1(C)C`, for which the IC50 was found to be 1.12 µM. `Cc1cccc2[nH]c(-c3ccc(-c4ccc(C(=O)NCCN5CCCC5)cc4)cc3)nc12` showed an IC50 of 0.52 µM. Against the preceding compound, the IC50 is about 2.2-fold lower.

Consider `CCNc1cc(C(=O)N[C@@H](Cc2ccccc2)[C@H](O)CNCCc2ccccc2)cc(N2CCCC2=O)c1`, for which the IC50 stood at 0.84 µM.

Take `Cc1noc(C)c1-c1ccc2c(Nc3ccccc3C(C)(C)C)c(C(=O)NC3CCCC3)cnc2c1`: the IC50 turned out to be 1.04 µM.

In turn, `COC(=O)c1ccc2nc(-c3cc(-c4cccc(-c5ccccc5)c4)cnc3N)[nH]c2c1` registered a concentration for half-maximal inhibition (IC50) of 0.21 µM.

Regarding `CCCN1CCN(CCCNC(=O)c2cc3c(Cl)nc4ccc(C)cc4c3s2)CC1`, the IC50 is 0.8 µM. Consider `O=C(NCC1CCN(CCN2CCC(c3cn(CCO)c4ccccc34)CC2)CC1)c1ccc(-c2ccc(C(F)(F)F)cc2)cc1`, for which the IC50 was 0.44 µM. Turning to `O=C(Nc1cccc(CN2CCCN(Cc3ccc(O)cc3)CC2)c1)c1ccc(-c2ccccc2)cc1`, the IC50 is 0.34 µM. Compound `COC(=O)Nc1ccc(-c2ccc(C(=O)NC3CCN(C[C@H](O)c4ccnc5ccc(OC)cc45)CC3)cc2)c(C)c1` yielded an IC50 of 0.69 µM. The figure for `COc1ccc2sc(CNCCCNc3cc(=O)c4ccccc4[nH]3)c(Cl)c2c1` is 1.07 µM. The same measure for `Cc1[nH]c2ccc(-c3ccc(N(C)C)cc3)cc2c(=O)c1Cl`: 0.72 µM; for `COc1ccccc1Cn1ccnc1SCC(=O)Nc1cc(C(F)(F)F)ccc1Cl`: 0.1 µM; for `CC(=NN=C(N)N)C(=O)Nc1ccc(Cl)c(Cl)c1`: 0.17 µM. The figure for `CCOc1ccccc1N1CCN(CCCNC(=O)/C(=C/C=C/c2cc3cc(Cl)c(Cl)cc3[nH]2)OC)CC1` is 0.85 µM. As for `CN(C)CCOc1ccc2c(c1)CN(C)CC2c1ccccc1` (stereo not given), the IC50 is 1.11 µM. This IC50 and that of the compound before are within 1.5-fold of each other.

Compound `N#Cc1cccc(NC(=O)Nc2ccc(-c3ccc(-c4nc5ccc(C(F)(F)F)cc5[nH]4)cc3)cc2)c1` displayed an IC50 of 0.14 µM. Against the preceding compound, the IC50 is about 7.9-fold lower.

In the case of `CC(=O)Nc1ccc(CN2CCC(NC(=O)c3ccc(-c4cccc(C(F)(F)F)c4)s3)CC2)cc1`, the IC50 came to 0.89 µM. In turn, `Cc1cc(OCC(=O)Nc2ccc(-c3nc4ccccc4[nH]3)cc2)cc(C)c1Cl` had an IC50 of 0.74 µM.

Consider `CCC(C)C#Cc1c(C)nc(N)nc1N` (stereo not given), for which the IC50 was 0.26 µM. Against the preceding compound, the IC50 is about 2.8-fold lower. The figure for `CC(=O)N1N=C(c2ccc(Cl)cc2)Sc2c1nc(-c1ccccc1)n2C(C)=O` is 0.49 µM. The same measure for `COc1ccc2c(NN=Cc3cccc([N+](=O)[O-])c3)ccnc2c1`: 0.85 µM. `O=[N+]([O-])c1ccc(-c2nc3ccc(C4=N[C@H]5CCCC[C@H]5N4)cc3[nH]2)cc1` registered an IC50 of 0.69 µM. As to `O=C(/C=C/c1ccc(Cl)c(Cl)c1)NCCCCCN1CCCC(c2c[nH]c3ccccc23)C1` (stereo not given), the IC50 turned out to be 0.81 µM. The IC50 values of the last two compounds are within 1.5-fold of each other.

With `CSc1cccc(Nc2nc3ccc(S(=O)(=O)NCC(C)C)cc3n2C(C)C(C)C)c1` (stereo not given), the IC50 stood at 0.82 µM. The figure for `O=C(Nc1cc(Cl)ccc1O)c1ccc(Oc2ccc(C(=O)Nc3cc(Cl)ccc3O)cc2)cc1` is 0.92 µM; for `Cc1noc(C)c1-c1cccc(CNCc2cccc(-c3csc(-c4nc5ccccc5[nH]4)c3)c2)c1` it is 0.26 µM. The same measure for `COc1ccc2nccc([C@@H](O)CN3CCC(NCc4ccc5c(c4)NC(=O)CS5)CC3)c2n1`: 0.75 µM; for `CCCc1cc(Cc2cnc(N)nc2N)ccc1OCCCCCC(=O)O`: 0.58 µM.

The record behind these values is PubChem BioAssay AID2305 (GlaxoSmithKline (GSK), 2010).
